From PubChem BioAssay AID1963848 (Molecular Pharmacology Branch, DTP, NCI, 2024)

Test system: 379773-124-R-J2-PDC spheroid viability
Assay: Anticancer human tumor 379773-124-R-J2-PDC patient-derived endometrial carcinoma cell line growth inhibition [POLQ]
Conditions: spheroids with HUVEC and MSC; for IC50: curve of first compound; for viability, T/C: stronger effect = lower value
Procedure, shortened: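 Patient-derived tumour cells were co-cultured with HUVEC and mesenchymal stem cells as multicellular spheroids at 37 °C. They were treated with POLQ inhibitors (novobiocin, ART-558, RP6685) alone or combined with other agents. Top concentrations were at or near clinical Cmax (otherwise 10 microM; SN-38 at 1 microM), decreasing in half-log steps.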

[1] = second compound 0.0316 µM, first compound 0.0316 µM
[2] = second compound 0.0316 µM, first compound 0.1 µM
[3] = second compound 0.0316 µM, first compound 0.316 µM
[4] = second compound 0.0316 µM, first compound 1 µM
[5] = second compound 0.0316 µM, first compound 3.16 µM
[6] = second compound 0.0316 µM, first compound 10 µM
[7] = second compound 0.1 µM, first compound 0.0316 µM
[8] = second compound 0.1 µM, first compound 0.1 µM
[9] = second compound 0.1 µM, first compound 0.316 µM
[10] = second compound 0.1 µM, first compound 1 µM
[11] = second compound 0.1 µM, first compound 3.16 µM
[12] = second compound 0.1 µM, first compound 10 µM
[13] = second compound 0.316 µM, first compound 0.0316 µM
[14] = second compound 0.316 µM, first compound 0.1 µM
[15] = second compound 0.316 µM, first compound 0.316 µM
[16] = second compound 0.316 µM, first compound 1 µM
[17] = second compound 0.316 µM, first compound 3.16 µM
[18] = second compound 0.316 µM, first compound 10 µM
[19] = second compound 1 µM, first compound 0.0316 µM
[20] = second compound 1 µM, first compound 0.1 µM
[21] = second compound 1 µM, first compound 0.316 µM
[22] = second compound 1 µM, first compound 1 µM
[23] = second compound 1 µM, first compound 3.16 µM
[24] = second compound 1 µM, first compound 10 µM
[25] = second compound 3.16 µM, first compound 0.0316 µM
[26] = second compound 3.16 µM, first compound 0.1 µM
[27] = second compound 3.16 µM, first compound 0.316 µM
[28] = second compound 3.16 µM, first compound 1 µM
[29] = second compound 3.16 µM, first compound 3.16 µM
[30] = second compound 3.16 µM, first compound 10 µM
[31] = second compound 10 µM, first compound 0.0316 µM
[32] = second compound 10 µM, first compound 0.1 µM
[33] = second compound 10 µM, first compound 0.316 µM
[34] = second compound 10 µM, first compound 1 µM
[35] = second compound 10 µM, first compound 3.16 µM
[36] = second compound 10 µM, first compound 10 µM
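Note: spheroids exposed to drugs for seven days before readout.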
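Throughout, for viability, T/C: percent viability relative to DMSO vehicle control taken as 100%.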

**Q.** Which results are given for CC1COCCN1c1cc(C2(O)CC3CCC(C2)O3)c2cnn(-c3ccn[nH]3)c2n1 (centres undefined) + COC1C(OC(N)=O)C(O)C(Oc2ccc3c(O)c(NC(=O)c4ccc(O)c(CC=C(C)C)c4)c(=O)oc3c2C)OC1(C)C?
**A.** IC50 (second compound 0.0316 µM): 66.1 nM; IC50 (second compound 0.1 µM): 99.4 nM; IC50 (second compound 0.316 µM): 103 nM; IC50 (second compound 1 µM): 75.8 nM; IC50 (second compound 3.16 µM): 86.8 nM; IC50 (second compound 10 µM): 76.5 nM; viability, T/C [1]: 74.8%; viability, T/C [2]: 36.6%; viability, T/C [3]: 14.5%; viability, T/C [4]: 10.8%; viability, T/C [5]: 7.52%; viability, T/C [6]: 2.19%; viability, T/C [7]: 82.9%; viability, T/C [8]: 49.9%; viability, T/C [9]: 11.2%; viability, T/C [10]: 8.68%; viability, T/C [11]: 7.3%; viability, T/C [12]: 2.55%; viability, T/C [13]: 90%; viability, T/C [14]: 51.2%; viability, T/C [15]: 12.9%; viability, T/C [16]: 10.9%; viability, T/C [17]: 6.18%; viability, T/C [18]: 2.42%; viability, T/C [19]: 77.8%; viability, T/C [20]: 41.4%; viability, T/C [21]: 11.6%; viability, T/C [22]: 10.2%; viability, T/C [23]: 6.65%; viability, T/C [24]: 1.98%; viability, T/C [25]: 71.9%; viability, T/C [26]: 47%; viability, T/C [27]: 11.7%; viability, T/C [28]: 9.21%; viability, T/C [29]: 7.19%; viability, T/C [30]: 2.23%; viability, T/C [31]: 75.4%; viability, T/C [32]: 42.4%; viability, T/C [33]: 10.3%; viability, T/C [34]: 9.86%; viability, T/C [35]: 7.38%; viability, T/C [36]: 2.73%

**Q.** With CNCc1ccc(-c2[nH]c3cc(F)cc4c3c2CCNC4=O)cc1 + Nc1ccc(C#CCN(C(=O)Cc2ncc(C(F)(F)F)cc2C(F)(F)F)c2ccc(F)cc2)nn1 as the molecule, how does the IC50 (second compound 0.0316 µM) read?
**A.** > 10000 nM

**Q.** And the IC50 (second compound 0.1 µM)?
**A.** > 10000 nM

**Q.** And the IC50 (second compound 0.316 µM)?
**A.** > 10000 nM

**Q.** What about the IC50 (second compound 1 µM) of the same molecule?
**A.** > 10000 nM

**Q.** And the IC50 (second compound 3.16 µM)?
**A.** > 10000 nM

**Q.** What about the IC50 (second compound 10 µM) of the same molecule?
**A.** > 10000 nM

**Q.** What about the viability, T/C [1] of the same molecule?
**A.** 92.7%

**Q.** What about the viability, T/C [2] of the same molecule?
**A.** 91.7%

**Q.** What about the viability, T/C [3] of the same molecule?
**A.** 91.2%

**Q.** And the viability, T/C [4]?
**A.** 101%

**Q.** And the viability, T/C [5]?
**A.** 99.8%

**Q.** And the viability, T/C [6]?
**A.** 99.7%

**Q.** What about the viability, T/C [7] of the same molecule?
**A.** 84.4%

**Q.** And the viability, T/C [8]?
**A.** 90.7%

**Q.** What about the viability, T/C [9] of the same molecule?
**A.** 87.5%

**Q.** What about the viability, T/C [10] of the same molecule?
**A.** 95.8%

**Q.** And the viability, T/C [11]?
**A.** 101%

**Q.** What about the viability, T/C [12] of the same molecule?
**A.** 79.6%

**Q.** And the viability, T/C [13]?
**A.** 101%

**Q.** And the viability, T/C [14]?
**A.** 95.4%

**Q.** What about the viability, T/C [15] of the same molecule?
**A.** 85.9%

**Q.** What about the viability, T/C [16] of the same molecule?
**A.** 87.1%

**Q.** And the viability, T/C [17]?
**A.** 93.8%

**Q.** What about the viability, T/C [18] of the same molecule?
**A.** 93.3%

**Q.** What about the viability, T/C [19] of the same molecule?
**A.** 90.4%

**Q.** What about the viability, T/C [20] of the same molecule?
**A.** 101%

**Q.** And the viability, T/C [21]?
**A.** 91.2%

**Q.** What about the viability, T/C [22] of the same molecule?
**A.** 91.2%

**Q.** And the viability, T/C [23]?
**A.** 92.9%

**Q.** And the viability, T/C [24]?
**A.** 83.4%

**Q.** And the viability, T/C [25]?
**A.** 88.2%

**Q.** What about the viability, T/C [26] of the same molecule?
**A.** 86%

**Q.** And the viability, T/C [27]?
**A.** 84.8%

**Q.** What about the viability, T/C [28] of the same molecule?
**A.** 86%

**Q.** What about the viability, T/C [29] of the same molecule?
**A.** 96.3%

**Q.** What about the viability, T/C [30] of the same molecule?
**A.** 79.4%

**Q.** And the viability, T/C [31]?
**A.** 102%

**Q.** And the viability, T/C [32]?
**A.** 88.4%

**Q.** And the viability, T/C [33]?
**A.** 85.3%

**Q.** What about the viability, T/C [34] of the same molecule?
**A.** 87.1%

**Q.** And the viability, T/C [35]?
**A.** 96.6%

**Q.** What about the viability, T/C [36] of the same molecule?
**A.** 86.4%
